Source: patent US10206979B2, “Treatment agent for cognitive impairment induced by amyloid beta-protein, therapeutic agent for alzheimer's disease, and treatment method and pathological analysis method related to these” (NATIONAL UNIVERSITY CORPORATION OKAYAMA UNIVERSITY, priority 2013, dated 2019)
No end group written: not given here.

Assays:
[1] = system: memory disorder induced by amyloid β protein oligomer; test: novel object recognition test in mouse model of memory disorder by administration of the amyloid β protein oligomer; type: in vivo, ICR mice; details: for ability to remember (exploration time for novel object vs familiar object): 1 μM amyloid β protein oligomer + 10 μM peptide in artificial cerebrospinal fluid, 3.5 μl/side to lateral ventricles, test session 24 h after training, paired t-test
Procedure: Preparation of a mouse model of memory disorder by administration of the amyloid β protein oligomer, and evaluation of the ability of memory acquisition by a novel object recognition test were carried out according to an earlier paper (Balducci et al., Proc Natl Acad Sci USA 107, 2295-2300, 2010).
ICR mice (6 to 7 weeks old) were anesthetized with ketamine (100 mg/kg) and xylazine (40 mg/kg), and each mouse was fixed on a brain stereotaxic apparatus. After removal of the scalp, small holes were made on the skull on the lateral ventricles, and guide cannulae (23 gage) were bilaterally embedded at the positions of ±1.0 mm lateral and 0.65 mm posterior to the bregma. The guide cannulae were fixed with a dental resin. After a period of four to five days for recovery from the surgery, each mouse was allowed to move freely for 10 minutes in order to allow acclimatization to the environment in a test cage (39 cm×22 cm) (habituation). This was continued for 3 days. On the next day, an artificial cerebrospinal fluid (control), artificial cerebrospinal fluid in Which 1 μM amyloid β protein oligomer is dissolved, or artificial cerebrospinal fluid in which 1 μM amyloid β protein oligomer and 10 μM p3-Alcβ37 peptide or a partial peptide thereof are dissolved, was bilaterally administered (3.5 μl/side) to the lateral ventricles through the guide cannulae embedded in the head, using an injection cannulae (30 gage, 1.7 mm from the brain surface).
Two hours after the administration, two identical objects (glass vials each having a plastic cap [objects A]: 3-cm diameter×6.5-cm height) were placed in the test cage for which the habituation had been carried out, such that the objects were positioned about 20 cm distant from each other. In the test cage, each mouse was allowed to move freely for 10 minutes to allow learning of the object A (training session). On the next day, 24 hours after the learning, a test was carried out to investigate if the mouse remembered the object A, which was presented on the previous day (test session). More specifically, in the same test cage, the object A presented on the previous day (that is, a familiar object) and a novel object (a metal cube [object B]: 4 cm×4 cm×4 cm) were placed at the same positions as those used on the previous day, and the mouse was allowed to move freely for 10 minutes in the test cage. In normal mice, since they naturally show interest in novel objects, the time for exploring the novel object (object B) is longer than the time for exploring the familiar object (object A). […] The exploratory behavior for each object was recorded using a video camera, and the total exploration time for each object was calculated. The time spent for contacting or approach of the head to the object (including sniffing), and contacting of a forelimb or hindlimb with the object was included in the exploration time. The ability of memory acquisition of the mice in each group was represented using the discrimination index. The discrimination index was defined as follows: ([exploration time for novel object]−[exploration time for familiar object ])/([exploration time for novel object]+[exploration time for familiar object]). In cases where discrimination between the novel object and the familiar object is impossible, the discrimination index is 0, while in cases where the exploration time for the novel object is longer than the exploration time for the familiar object, the discrimination index is positive. […] Therefore, the calculation of the exploration time and the discrimination index was carried out based on the behavior observed during the first 5 minutes after the placement of the mouse in the test cage.
In terms of the reagents used, the composition of the artificial cerebrospinal fluid was as follows: 137 mM NaCl, 3 mM KCl, 1 mM MgCl2, 1.2 mM CaCl2, 2.5 mM glucose, and 2 mM sodium phosphate buffer (pH 7.4). […]

[2] = system: memory disorder induced by MK-801 (NMDA receptor-dependent memory disorder); test: novel object recognition test in mouse model of memory disorder prepared by administration of NMDA receptor inhibitor MK-801; type: in vivo, ICR mice; details: 10 μM peptide to cerebral ventricle; (+)-MK-801 maleate 2 mg/kg intraperitoneally; paired t-test, P>0.05
Procedure: ICR mice (6 to 7 weeks old) were anesthetized with ketamine (100 mg/kg) and xylazine (40 mg/kg), and each mouse was fixed on a brain stereotaxic apparatus. After removal of the scalp, small holes were made on the skull on the lateral ventricles, and guide cannulae (23 gage) were bilaterally embedded at the positions of ±1.0 mm lateral and 0.65 mm posterior to the bregma. The guide cannulae were fixed with a dental resin. After a period of four to five days for recovery from the surgery, each mouse was allowed to move freely for 10 minutes in order to allow acclimatization to the environment in a test cage (39 cm×22 cm) (habituation). This was continued for 3 days. […]
Two hours after the administration, two identical objects (glass vials each having a plastic cap [objects A]: 3-cm diameter×6.5-cm height) were placed in the test cage for which the habituation had been carried out, such that the objects were positioned about 20 cm distant from each other. […] The exploratory behavior for each object was recorded using a video camera, and the total exploration time for each object was calculated. […]

## VLSSQQFLHRG (a part of p3-Alc beta 37 (position 1-11)) [p3-Alcβ37[1-11], partial peptide corresponding to positions 1 to 11 of p3-Alcβ37]
[1]
  ability to remember (exploration time for novel object vs familiar object): ability to remember remained impaired

## GHSLASSHRNSMIPSAAT (a part of p3-Alc beta 37 (position 20-37)) [p3-Alcβ37 [20-37], partial peptide corresponding to positions 20 to 37 of p3-Alcβ37]
[1]
  ability to remember (exploration time for novel object vs familiar object): no recovery of the ability to remember

## HRGHQPPPEMA (a part of p3-Alc beta 37 (position 9-19)) [p3-Alcβ37[9-19], partial peptide corresponding to positions 9 to 19 of p3-Alcβ37 (11 amino acids)]
[1]
  ability to remember (exploration time for novel object vs familiar object): ability to remember showed remarkable recovery

## VLSSQQFLHRGHQPPPEMAGHSLASSHRNSMIPSAAT (listed as Homo sapiens) [p3-Alcβ37, peptide composed of 37 amino acids produced by cleavage of Alcadein-β by γ-secretase and α-secretase]
[1]
  ability to remember (exploration time for novel object vs familiar object): remarkable recovery of the ability to remember
[1]; 1 μM oligomer + 10 μM peptide, lateral ventricles, Tukey test, P<0.01
  discrimination index relative to the group in which the oligomer was administered: significant increase in the discrimination index
[1]; 1 μM oligomer + 10 μM peptide, lateral ventricles, Tukey test, P>0.05
  discrimination index relative to the group in which the artificial cerebrospinal fluid was administered: No significant difference in the discrimination index
[2]
  effect to ameliorate memory disorder (exploration time for novel object vs familiar object): effect to ameliorate memory disorder was not found

## VLSSQQFLHRGHOPPPEMA (VLSSQQFLHRGHQPPPEMA; not fully specified) [p3-Alcβ37 [1-19], partial peptide corresponding to positions 1 to 19 of p3-Alcβ37]
[1]
  ability to remember (exploration time for novel object vs familiar object): remarkable recovery of the ability to remember
